biological target: PLK1 (Homo sapiens, UniProt P53350); experiment: PLK1 Inhibition Assay I (radioactive-phosphate incorporation); assay type: biochemical; conditions: Ki(app); PLK1 Inhibition Assay I or II (table does not say which)
Protocol: The compounds of the present invention are evaluated as inhibitors of human PLK kinase using the following assays.
Compounds were screened for their ability to inhibit PLK1 using a radioactive-phosphate incorporation assay. Assays were carried out in a mixture of 25 mM HEPES (pH 7.5), 10 mM MgCl2, and 1 mM DTT. Final substrate concentrations were 350 μM [γ-33P]ATP (136 mCi 33P ATP/mmol ATP, Amersham Pharmacia Biotech/Sigma Chemicals) and 450 μM peptide (KKKISDELMDATFADQEAK) [SEQ. ID:1]. Assays were carried out at 25° C. in the presence of 2 nM PLK1. An assay stock buffer solution was prepared containing all of the reagents listed above, with the exception of ATP and the test compound of interest. 30 μL of the stock solution was placed in a 96 well plate followed by addition of 2 μL of DMSO stock containing serial dilutions of the test compound (typically starting from a final concentration of 10 μM with 2-fold serial dilutions) in duplicate (final DMSO concentration 5%). The plate was pre-incubated for 10 minutes at 25° C. and the reaction initiated by addition of 8 μL [γ-33P]ATP (final concentration 350 μM).
The reaction was stopped after 240 minutes by the addition of 100 μL 0.14M phosphoric acid. A multiscreen phosphocellulose filter 96-well plate (Millipore, Cat No. MAPHN0B50) was pretreated with 100 μL 0.1 M phosphoric acid prior to the addition of 125 μL of the stopped assay mixture. The plate was washed with 4×200 μL 0.1 M phosphoric acid. After drying, 100 μL Optiphase ‘SuperMix’ liquid scintillation cocktail (Perkin Elmer) was added to the well prior to scintillation counting (1450 Microbeta Liquid Scintillation Counter, Wallac).
After removing mean background values for all of the data points, Ki(app) data were calculated from non-linear regression analysis of the initial rate data using the Prism software package (GraphPad Prism version 3.0cx for Macintosh, GraphPad Software, San Diego Calif., USA).

Sequence of PLK1 (P53350 whole entry): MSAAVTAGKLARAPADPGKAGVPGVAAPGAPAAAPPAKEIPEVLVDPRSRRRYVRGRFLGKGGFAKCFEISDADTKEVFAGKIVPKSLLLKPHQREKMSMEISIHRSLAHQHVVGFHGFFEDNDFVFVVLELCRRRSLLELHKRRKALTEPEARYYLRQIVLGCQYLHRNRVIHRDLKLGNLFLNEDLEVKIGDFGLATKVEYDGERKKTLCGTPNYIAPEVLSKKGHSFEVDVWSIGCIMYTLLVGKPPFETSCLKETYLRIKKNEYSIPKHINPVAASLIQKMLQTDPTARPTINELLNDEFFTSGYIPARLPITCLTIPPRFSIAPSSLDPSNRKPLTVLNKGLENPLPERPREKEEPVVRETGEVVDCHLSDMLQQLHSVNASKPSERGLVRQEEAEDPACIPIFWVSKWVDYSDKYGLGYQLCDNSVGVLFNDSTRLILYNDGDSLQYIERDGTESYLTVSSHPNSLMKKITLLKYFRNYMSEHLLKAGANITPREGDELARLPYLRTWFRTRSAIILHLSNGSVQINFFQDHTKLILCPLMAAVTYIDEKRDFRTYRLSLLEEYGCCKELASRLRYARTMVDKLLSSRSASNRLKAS

SMILES | Ki [nM]
C[C@@H](Nc1ncc(C#N)c(-c2c[nH]c3ncc(C(F)(F)F)cc23)n1)c1ccc(NC2CCN(C)CC2)nc1 [Compound I-297, 2-((R)-1-(6-(1-methylpiperidin-4-ylamino)pyridin-3-yl)ethylamino)-4-(5-(trifluoromethyl)-1H-pyrrolo[2,3-b]pyridin-3-yl)pyrimidine-5-carbonitrile] | < 3
CCC(Nc1ncc(C#N)c(-c2c[nH]c3ncc(C(F)(F)F)cc23)n1)C1CCN(S(=O)(=O)CC)CC1 (stereo not shown) [Compound I-175, 2-(1-(1-(ethylsulfonyl)piperidin-4-yl)propylamino)-4-(5-(trifluoromethyl)-1H-pyrrolo[2,3-b]pyridin-3-yl)pyrimidine-5-carbonitrile] | < 3
CC(C)Nc1ncc(C#N)c(-c2c[nH]c3ncc(C(F)(F)F)cc23)n1 [Compound I-3, 2-(isopropylamino)-4-(5-(trifluoromethyl)-1H-pyrrolo[2,3-b]pyridin-3-yl)pyrimidine-5-carbonitrile] | 3 to 40
N#Cc1cnc(NCc2ccc(O)c(O)c2)nc1-c1c[nH]c2ncc(C(F)(F)F)cc12 [Compound I-37, 2-(3,4-dihydroxybenzylamino)-4-(5-(trifluoromethyl)-1H-pyrrolo[2,3-b]pyridin-3-yl)pyrimidine-5-carbonitrile] | > 40
Cc1ccc(C)c(CNc2ncc(C#N)c(-c3c[nH]c4ncc(C(F)(F)F)cc34)n2)c1 [Compound I-60, 2-(2,5-dimethylbenzylamino)-4-(5-(trifluoromethyl)-1H-pyrrolo[2,3-b]pyridin-3-yl)pyrimidine-5-carbonitrile] | 3 to 40
C[C@@H](Nc1ncc(C#N)c(-c2c[nH]c3ncc(C(F)(F)F)cc23)n1)c1ccc2ccccc2c1 [Compound I-31, 2-((R)-1-(naphthalen-2-yl)ethylamino)-4-(5-(trifluoromethyl)-1H-pyrrolo[2,3-b]pyridin-3-yl)pyrimidine-5-carbonitrile] | 3 to 40
CCC(=O)Nc1ccc([C@@H](C)Nc2ncc(C#N)c(-c3c[nH]c4ncc(C(F)(F)F)cc34)n2)cc1 [Compound I-144, N-(4-((1R)-1-(5-cyano-4-(5-(trifluoromethyl)-1H-pyrrolo[2,3-b]pyridin-3-yl)pyrimidin-2-ylamino)ethyl)phenyl)propionamide] | < 3
N#Cc1cnc(NC(CCO)C2CC2)nc1-c1c[nH]c2ncc(C(F)(F)F)cc12 (stereo not shown) [Compound I-106, 2-(1-cyclopropyl-3-hydroxypropylamino)-4-(5-(trifluoromethyl)-1H-pyrrolo[2,3-b]pyridin-3-yl)pyrimidine-5-carbonitrile] | 3 to 40
CC(C)[C@@H](N)C(=O)N1CCC([C@@H](C)Nc2ncc(C#N)c(-c3c[nH]c4ncc(C(F)(F)F)cc34)n2)CC1 [Compound I-229, 2-((R)-1-(1-((R)-2-amino-3-methylbutanoyl)piperidin-4-yl)ethylamino)-4-(5-(trifluoromethyl)-1H-pyrrolo[2,3-b]pyridin-3-yl)pyrimidine-5-carbonitrile] | < 3
C[C@@H](Nc1ncc(C#N)c(-c2c[nH]c3ncc(C(F)(F)F)cc23)n1)C1CCCCC1 [Compound I-61, 2-((R)-1-cyclohexylethylamino)-4-(5-(trifluoromethyl)-1H-pyrrolo[2,3-b]pyridin-3-yl)pyrimidine-5-carbonitrile] | < 3
N#Cc1cnc(NC2CCC(O)CC2)nc1-c1c[nH]c2ncc(C(F)(F)F)cc12 (stereo not shown) [Compound I-95, 2-(4-hydroxycyclohexylamino)-4-(5-(trifluoromethyl)-1H-pyrrolo[2,3-b]pyridin-3-yl)pyrimidine-5-carbonitrile] | 3 to 40
CC(C)[C@H](CO)Nc1ncc(C#N)c(-c2c[nH]c3ncc(C(F)(F)F)cc23)n1 [Compound I-47, 2-((R)-1-hydroxy-3-methylbutan-2-ylamino)-4-(5-(trifluoromethyl)-1H-pyrrolo[2,3-b]pyridin-3-yl)pyrimidine-5-carbonitrile] | < 3
N#Cc1cnc(NC2CCCCC2)nc1-c1c[nH]c2ncc(C(F)(F)F)cc12 [Compound I-10, 2-(cyclohexylamino)-4-(5-(trifluoromethyl)-1H-pyrrolo[2,3-b]pyridin-3-yl)pyrimidine-5-carbonitrile] | 3 to 40
COCCC(=O)N1CCC(C(C)Nc2ncc(C#N)c(-c3c[nH]c4ncc(C(F)(F)F)cc34)n2)CC1 (stereo not shown) [Compound I-184, 2-(1-(1-(3-methoxypropanoyl)piperidin-4-yl)ethylamino)-4-(5-(trifluoromethyl)-1H-pyrrolo[2,3-b]pyridin-3-yl)pyrimidine-5-carbonitrile] | < 3
COCC(C)Nc1ncc(C#N)c(-c2c[nH]c3ncc(C(F)(F)F)cc23)n1 (stereo not shown) [Compound I-82, 2-(1-methoxypropan-2-ylamino)-4-(5-(trifluoromethyl)-1H-pyrrolo[2,3-b]pyridin-3-yl)pyrimidine-5-carbonitrile] | 3 to 40
N#Cc1cnc(N[C@@H]2CC3CC[C@@H]2C3)nc1-c1c[nH]c2ncc(C(F)(F)F)cc12 [Compound I-65, 2-((1R,2R)-bicyclo[2.2.1]heptan-2-ylamino)-4-(5-(trifluoromethyl)-1H-pyrrolo[2,3-b]pyridin-3-yl)pyrimidine-5-carbonitrile] | 3 to 40
C[C@@H](Nc1ncc(C#N)c(-c2c[nH]c3ncc(C(F)(F)F)cc23)n1)[C@H]1CC[C@H](NC(=O)CN)CC1 [Compound I-264, 2-amino-N-((1R,4r)-4-((1R)-1-(5-cyano-4-(5-(trifluoromethyl)-1H-pyrrolo[2,3-b]pyridin-3-yl)pyrimidin-2-ylamino)ethyl)cyclohexyl)acetamide] | < 3
CCOc1cccc(Sc2ncc(C#N)c(-c3c[nH]c4ncc(C(F)(F)F)cc34)n2)c1 [II-9, 2-(3-ethoxyphenylthio)-4-(5-(trifluoromethyl)-1H-pyrrolo[2,3-b]pyridin-3-yl)pyrimidine-5-carbonitrile] | > 40
CN1CCC(Nc2ncc(C#N)c(-c3c[nH]c4ncc(C(F)(F)F)cc34)n2)CC1 [Compound I-63, 2-(1-methylpiperidin-4-ylamino)-4-(5-(trifluoromethyl)-1H-pyrrolo[2,3-b]pyridin-3-yl)pyrimidine-5-carbonitrile] | 3 to 40
C[C@@H](Nc1ncc(C#N)c(-c2c[nH]c3ncc(C(F)(F)F)cc23)n1)C1CCN(C(=O)C(N)=O)CC1 [Compound I-258, 2-(4-((1R)-1-(5-cyano-4-(5-(trifluoromethyl)-1H-pyrrolo[2,3-b]pyridin-3-yl)pyrimidin-2-ylamino)ethyl)piperidin-1-yl)-2-oxoacetamide] | < 3
COC[C@@H](Nc1ncc(C#N)c(-c2c[nH]c3ncc(C(F)(F)F)cc23)n1)c1ccccc1 [Compound I-43, 2-((S)-2-methoxy-1-phenylethylamino)-4-(5-(trifluoromethyl)-1H-pyrrolo[2,3-b]pyridin-3-yl)pyrimidine-5-carbonitrile] | > 40
N#Cc1cnc(NCc2cccnc2)nc1-c1c[nH]c2ncc(C(F)(F)F)cc12 [Compound I-14, 2-(pyridin-3-ylmethylamino)-4-(5-(trifluoromethyl)-1H-pyrrolo[2,3-b]pyridin-3-yl)pyrimidine-5-carbonitrile] | 3 to 40
COC(=O)Nc1ccc([C@@H](C)Nc2ncc(C#N)c(-c3c[nH]c4ncc(C(F)(F)F)cc34)n2)cc1 [Compound I-141, methyl 4-((1R)-1-(5-cyano-4-(5-(trifluoromethyl)-1H-pyrrolo[2,3-b]pyridin-3-yl)pyrimidin-2-ylamino)ethyl)phenylcarbamate] | < 3
CC(C)CNc1ncc(C#N)c(-c2c[nH]c3ncc(C(F)(F)F)cc23)n1 [Compound I-36, 2-(isobutylamino)-4-(5-(trifluoromethyl)-1H-pyrrolo[2,3-b]pyridin-3-yl)pyrimidine-5-carbonitrile] | 3 to 40
N#Cc1cnc(SCCc2ccccc2)nc1-c1c[nH]c2ncc(C(F)(F)F)cc12 [II-10, 2-(phenethylthio)-4-(5-(trifluoromethyl)-1H-pyrrolo[2,3-b]pyridin-3-yl)pyrimidine-5-carbonitrile] | > 40
C[C@@H](Nc1ncc(C#N)c(-c2c[nH]c3ncc(C(F)(F)F)cc23)n1)C1CCN(C(=O)[C@H](N)CC(N)=O)CC1 [Compound I-250, (3R)-3-amino-4-(4-((1R)-1-(5-cyano-4-(5-(trifluoromethyl)-1H-pyrrolo[2,3-b]pyridin-3-yl)pyrimidin-2-ylamino)ethyl)piperidin-1-yl)-4-oxobutanamide] | < 3
C[C@@H](Nc1ncc(C#N)c(-c2c[nH]c3ncc(C(F)(F)F)cc23)n1)c1ccc(O)cc1 [Compound I-99, 2-((R)-1-(4-hydroxyphenyl)ethylamino)-4-(5-(trifluoromethyl)-1H-pyrrolo[2,3-b]pyridin-3-yl)pyrimidine-5-carbonitrile] | < 3
N#CCNc1ncc(C#N)c(-c2c[nH]c3ncc(C(F)(F)F)cc23)n1 [Compound I-71, 2-(cyanomethylamino)-4-(5-(trifluoromethyl)-1H-pyrrolo[2,3-b]pyridin-3-yl)pyrimidine-5-carbonitrile] | > 40

Source: patent publication US8530489B2 (Vertex Pharmaceuticals Incorporated, priority 2006, dated 2013)
